This passage reports IC50 cell viability results from the supplement of paper PMC12137928.

Structures can show the parent of a compound that is named as a salt.

For this assay, the system named is HCT116. The settings on record: 72 h. The method, boiled down:
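HCT116 cells were seeded at 250 per well in 1536-well plates with 5 h allowed for attachment. CellTiter-Glo luminescence was normalized against vehicle (0%) and positive control (-100%) before pattern correction. The IC50 and maximal efficacy figures derive from four-parameter Hill fits.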

With `CC[C@H]1OC(=O)[C@H](C)C(=O)[C@H](C)[C@@H](O[C@@H]2O[C@H](C)C[C@H](N(C)C)[C@H]2O)[C@](C)(OC)C[C@@H](C)C(=O)[C@H](C)[C@H]2N(CCCCn3cnc(-c4cccnc4)c3)C(=O)O[C@]12C` [TELITHROMYCIN], the IC50 cell viability runs as follows: (ICRF193 0 nM) over 45.8 µM; (ICRF193 200 nM) over 45.8 µM.
Consider `CC[C@H]1OC(=O)C[C@@H](O)[C@H](C)[C@@H](O[C@@H]2O[C@H](C)[C@@H](O)[C@H](N(C)C)[C@H]2O)[C@@H](CCN2C[C@H](C)C[C@H](C)C2)C[C@@H](C)C(=O)/C=C/C(C)=C/[C@@H]1CO[C@@H]1O[C@H](C)[C@@H](O)[C@@H](OC)[C@H]1OC` [TILMICOSIN], for which the IC50 cell viability is over 45.8 µM (ICRF193 0 nM) and over 45.8 µM (ICRF193 200 nM).
`CCOC(=O)[C@H](CCc1ccccc1)N[C@@H](C)C(=O)N1[C@H](C(=O)O)C[C@H]2CCCC[C@@H]21` [TRANDOLAPRIL] returned an IC50 cell viability (ICRF193 0 nM) of over 45.8 µM and an IC50 cell viability (ICRF193 200 nM) of over 45.8 µM.
The compound `NC[C@H]1CC[C@H](C(=O)O)CC1` [TRANEXAMIC ACID] came in with an IC50 cell viability (ICRF193 0 nM) of over 45.8 µM and an IC50 cell viability (ICRF193 200 nM) of over 45.8 µM.
In the case of `Cc1cc(-c2ccc(/N=N/c3c(S(=O)(=O)O)cc4cc(S(=O)(=O)O)cc(N)c4c3O)c(C)c2)ccc1/N=N/c1c(S(=O)(=O)O)cc2cc(S(=O)(=O)O)cc(N)c2c1O` [TRYPAN BLUE], the IC50 cell viability was over 45.8 µM (ICRF193 0 nM) and over 45.8 µM (ICRF193 200 nM).
For `CC[C@H]1OC(=O)C[C@@H](O)[C@H](C)[C@@H](O[C@@H]2O[C@H](C)[C@@H](O[C@H]3C[C@@](C)(O)[C@@H](O)[C@H](C)O3)[C@H](N(C)C)[C@H]2O)[C@@H](CC=O)C[C@@H](C)C(=O)/C=C/C(C)=C/[C@@H]1CO[C@@H]1O[C@H](C)[C@@H](O)[C@@H](OC)[C@H]1OC` [TYLOSIN TARTRATE], the IC50 cell viability is over 45.8 µM (ICRF193 0 nM) and over 45.8 µM (ICRF193 200 nM).
As for `Nc1c2c(nc3ccccc13)CCCC2` [Tacrine hydrochloride], the IC50 cell viability (ICRF193 0 nM) was over 45.8 µM and the IC50 cell viability (ICRF193 200 nM) was over 45.8 µM.
For the compound `CN1CC(=O)N2[C@H](c3ccc4c(c3)OCO4)c3[nH]c4ccccc4c3C[C@@H]2C1=O` [Tadalafil], the IC50 cell viability is over 45.8 µM (ICRF193 0 nM) and over 45.8 µM (ICRF193 200 nM).
As to `O=C(O)c1ccc2nc(-c3cc(Cl)cc(Cl)c3)oc2c1` [Tafamidis], the IC50 cell viability is, setting by setting: (ICRF193 0 nM) over 45.8 µM; (ICRF193 200 nM) over 45.8 µM.
As to `C=Cc1c(C)c2cc3nc(c(CC(=O)N[C@@H](CC(=O)O)C(=O)O)c4[nH]c(cc5nc(cc1[nH]2)C(C)=C5CC)c(C)c4C(=O)O)[C@@H](CCC(=O)O)[C@@H]3C` [Talaporfin sodium], the IC50 cell viability is over 45.8 µM (ICRF193 0 nM) and over 45.8 µM (ICRF193 200 nM).
As to `C=CCC1(C(C)CC)C(=O)NC(=O)NC1=O` (configuration not stated) [Talbutal], the IC50 cell viability reads like this: (ICRF193 0 nM) over 45.8 µM; (ICRF193 200 nM) over 45.8 µM.
As for `C=CCN1CCc2nc(N)sc2CC1` [Talipexole], the IC50 cell viability is, setting by setting: (ICRF193 0 nM) over 45.8 µM; (ICRF193 200 nM) over 45.8 µM.
For the compound `CN1C(=O)C[C@@H](C(=O)N[C@@H](Cc2c[nH]cn2)C(=O)N2CCC[C@H]2C(N)=O)NC1=O` [Taltirelin], the IC50 cell viability (ICRF193 0 nM) was over 45.8 µM and the IC50 cell viability (ICRF193 200 nM) was over 45.8 µM.
Take `CCOc1ccccc1OCCN[C@H](C)Cc1ccc(OC)c(S(N)(=O)=O)c1` [Tamsulosin hydrochloride]: the IC50 cell viability was over 45.8 µM (ICRF193 0 nM) and over 45.8 µM (ICRF193 200 nM).
For `O=C1[C@@H]2[C@H]3CC[C@H](C3)[C@@H]2C(=O)N1CCCCN1CCN(c2ncccn2)CC1` [Tandospirone], the IC50 cell viability is over 45.8 µM (ICRF193 0 nM) and over 45.8 µM (ICRF193 200 nM).
As for `CCC(=O)NC[C@@H]1C[C@H]1c1cccc2c1CCO2` [Tasimelteon], the IC50 cell viability (ICRF193 0 nM) was over 45.8 µM and the IC50 cell viability (ICRF193 200 nM) is over 45.8 µM.
In the case of `NCCS(=O)(=O)O` [Taurine], the IC50 cell viability reads like this: (ICRF193 0 nM) over 45.8 µM; (ICRF193 200 nM) over 45.8 µM.
On to `CCCCOC(=O)C(=O)Nc1cccc(-c2nnn[nH]2)c1` [Tazanolast], for which the IC50 cell viability is, setting by setting: (ICRF193 0 nM) over 45.8 µM; (ICRF193 200 nM) over 45.8 µM.
`CCOC(=O)c1ccc(C#Cc2ccc3c(c2)C(C)(C)CCS3)nc1` [Tazarotene]: the IC50 cell viability is, setting by setting: (ICRF193 0 nM) over 45.8 µM; (ICRF193 200 nM) over 45.8 µM.
For the compound `C[C@]1(Cn2ccnn2)[C@H](C(=O)O)N2C(=O)C[C@H]2S1(=O)=O` [Tazobactam sodium], the IC50 cell viability reads like this: (ICRF193 0 nM) over 45.8 µM; (ICRF193 200 nM) over 45.8 µM.
Turning to `C[C@@H](O)[C@H]1C(=O)N2C(C(=O)OCOC(=O)C(C)(C)C)=C(SC3CN(C4=NCCS4)C3)[C@H](C)[C@H]12` [Tebipenem pivoxil], the IC50 cell viability was over 45.8 µM (ICRF193 0 nM) and over 45.8 µM (ICRF193 200 nM).
For `O=c1[nH]c(=O)n(C2CCCO2)cc1F` (configuration not stated) [Tegafur], the IC50 cell viability is over 45.8 µM (ICRF193 0 nM) and over 45.8 µM (ICRF193 200 nM).
Take `Cc1cn([C@@H]2C[C@@H](O)[C@H](CO)O2)c(=O)[nH]c1=O` [Telbivudine]: the IC50 cell viability runs as follows: (ICRF193 0 nM) over 45.8 µM; (ICRF193 200 nM) over 45.8 µM.
On to `CCCc1nc2c(C)cc(-c3nc4ccccc4n3C)cc2n1Cc1ccc(-c2ccccc2C(=O)O)cc1` [Telmisartan], for which the IC50 cell viability reads like this: (ICRF193 0 nM) over 45.8 µM; (ICRF193 200 nM) over 45.8 µM.
Consider `CCOC(=O)[C@H](CCc1ccccc1)N[C@H]1CS[C@H](c2cccs2)CN(CC(=O)O)C1=O` [Temocapril hydrochloride], for which the IC50 cell viability (ICRF193 0 nM) is over 45.8 µM and the IC50 cell viability (ICRF193 200 nM) is over 45.8 µM.
Turning to `Cn1nnc2c(C(N)=O)ncn2c1=O` [Temozolomide], the IC50 cell viability reads like this: (ICRF193 0 nM) over 45.8 µM; (ICRF193 200 nM) over 45.8 µM.
As to `COc1ccc2[nH]c([S+]([O-])Cc3ncc(C)c(OC)c3C)nc2n1` (configuration not stated) [Tenatoprazole], the IC50 cell viability by setting is: (ICRF193 0 nM) over 45.8 µM; (ICRF193 200 nM) over 45.8 µM.
`Cc1cc(N2CCN([C@@H]3CN[C@H](C(=O)N4CCSC4)C3)CC2)n(-c2ccccc2)n1` [Teneligliptin] yielded an IC50 cell viability (ICRF193 0 nM) of over 45.8 µM and an IC50 cell viability (ICRF193 200 nM) of over 45.8 µM.
As to `CC(C)OC(=O)OCOP(=O)(CO[C@H](C)Cn1cnc2c(N)ncnc21)OCOC(=O)OC(C)C` [Tenofovir disoproxil fumarate], the IC50 cell viability reads like this: (ICRF193 0 nM) over 45.8 µM; (ICRF193 200 nM) over 45.8 µM.
With `CN1C(C(=O)Nc2ccccn2)=C(O)c2sccc2S1(=O)=O` [Tenoxicam], the IC50 cell viability reads like this: (ICRF193 0 nM) over 45.8 µM; (ICRF193 200 nM) over 45.8 µM.
For `CC(=O)CC/C=C(\C)CC/C=C(\C)CC/C=C(\C)CCC=C(C)C` [Teprenone], the IC50 cell viability by setting is: (ICRF193 0 nM) over 45.8 µM; (ICRF193 200 nM) over 45.8 µM.
For `COc1cc2nc(N3CCN(C(=O)C4CCCO4)CC3)nc(N)c2cc1OC` (configuration not stated) [Terazosin hydrochloride], the IC50 cell viability was over 45.8 µM (ICRF193 0 nM) and over 45.8 µM (ICRF193 200 nM).
For the compound `CN(C/C=C/C#CC(C)(C)C)Cc1cccc2ccccc12` [Terbinafine], the IC50 cell viability (ICRF193 0 nM) was over 45.8 µM and the IC50 cell viability (ICRF193 200 nM) was over 45.8 µM.
As for `CC(C)(C)NCC(O)c1cc(O)cc(O)c1` (configuration not stated) [Terbutaline hemisulfate], the IC50 cell viability is over 45.8 µM (ICRF193 0 nM) and over 45.8 µM (ICRF193 200 nM).
Take `CC(C)N1CCN(c2ccc(OCC3COC(Cn4cncn4)(c4ccc(Cl)cc4Cl)O3)cc2)CC1` (configuration not stated) [Terconazole]: the IC50 cell viability reads like this: (ICRF193 0 nM) over 45.8 µM; (ICRF193 200 nM) over 45.8 µM.
Regarding `CC(C)(C)c1ccc(C(O)CCCN2CCC(C(O)(c3ccccc3)c3ccccc3)CC2)cc1` (configuration not stated) [Terfenadine], the IC50 cell viability was over 45.8 µM (ICRF193 0 nM) and over 45.8 µM (ICRF193 200 nM).
